Measurements as given in patent US20240299486A1, “ADDRESSING INJECTION SITE REACTIONS ASSOCIATED WITH THE ADMINISTRATION OF ELAMIPRETIDE” (STEALTH BIOTHERAPEUTICS INC., priority 2022, published 2024).

What was measured:
[1] = tested on: rats; conditions: subcutaneous administration, long term toxicology studies
[2] = target: mouse ortholog Mrgprb2 (Mus musculus, UniProt Q3KNA1); conditions: HEK293 cells transfected with mouse ortholog Mrgprb2
Experimental: (§1) A clonal HEK293 cell line stably expressing human MRGPRX2 and Galpha15 was used for the assay, which was performed using a fluorescent plate reader. Cells were plated at 40,000 cells per well in a glass-bottom 96 well plate 20 hours before the assay. Cells were loaded with N-[4-[6-[(Acetyloxy)methoxy]-2,7-difluoro-3-oxo-3H-xanthen-9-yl]-2-[2-[2-[bis[2-[(acetyloxy)methoxy]-2-oxoethyl]amino]-5-methylphenoxy]ethoxy]phenyl]-N-[2-[(acetyloxy)methoxy]-2-oxoethyl]glycine (acetyloxy)methyl ester (Fluo-4 AM) for 45 minutes at 37° C. and allowed to rest for 30 minutes before use. Baseline fluorescence was calculated as the average of a 30 second read, with data points taken at 5 second intervals. Response was defined as the maximum signal within 90 seconds after addition of elamipretide, subtracted by the baseline fluorescence signal. Concentrations were tested in duplicate and the assay was run 6 times. The curve was calculated as a four-parameter non-linear fit with variable slope. Traces were obtained using the same cell line and same Fluo-4 AM loading protocol but were imaged using a fluorescence microscope using a standard fluorescein isothiocyanate (FITC) filter. Fluorescence for different cells was calculated using region of interest selections.
A calcium-based readout of receptor activity was used to determine whether elamipretide activates human MRGPRX2 and its mouse ortholog Mrgprb2. […]

[3] = target: T1, MRGPRX2 receptor (Homo sapiens, UniProt Q96LB1); assay: Fluo-4 calcium assay in MRGPRX2 expressing Chem-1 cells; type: cell-based; conditions: Chem-1 cells, Fluo-4
T1 construct: host or cells: Chem-1 cells (G418-selected)
T1 sequence (Q96LB1 1-330): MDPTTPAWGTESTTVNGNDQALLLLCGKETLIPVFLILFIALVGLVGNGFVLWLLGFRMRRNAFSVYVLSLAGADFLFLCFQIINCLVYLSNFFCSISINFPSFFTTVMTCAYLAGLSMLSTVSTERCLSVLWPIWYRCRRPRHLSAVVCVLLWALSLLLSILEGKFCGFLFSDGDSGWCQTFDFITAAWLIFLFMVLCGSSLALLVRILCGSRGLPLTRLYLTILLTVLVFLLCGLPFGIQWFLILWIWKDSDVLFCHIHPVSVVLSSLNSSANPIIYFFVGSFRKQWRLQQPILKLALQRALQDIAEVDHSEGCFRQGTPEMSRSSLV

[4] = tested on: untransfected cells; assay: Fluo-4 calcium assay in untransfected HEK293 cells; type: cell-based, human; conditions: untransfected cells (data not shown)
[5] = tested on: subjects
[6] = target: human MRGPRX2 (Homo sapiens, UniProt Q96LB1); assay: cell-based
Experimental: as §1
A calcium-based readout of receptor activity was used to determine whether elamipretide activates human MRGPRX2 and its mouse ortholog Mrgprb2. This assay is known to be widely used in drug screening and utilized a cell line stably transfected with the receptor along with Galpha15, a promiscuous G protein that couples to the receptor and induced an increase in intracellular calcium when the receptor was activated. Thus, an increase in calcium levels reflected receptor activation. Calcium levels were detected by imaging Fluo-4 (from Fluo-4 AM), a dye that increases in fluorescence when bound to calcium.

[7] = tested on: Mouse primary peritoneal mast cells; assay: Mast cell activation (Fluo-4 calcium imaging); type: cell-based; conditions: 500 micrograms/mL elamipretide
Experimental: Mouse primary peritoneal mast cells were isolated from wild type and Mrgprb2 knockout mice. Mast cells were incubated in Dulbecco's Modified Eagle Medium, supplemented with 10% fetal bovine serum and 100 ng/mL human stem cell factor for 2 hours in wells of a glass-bottom 96 well plate that had been previously coated with fibronectin. […] A confocal fluorescence microscope was used to assess changes in free intracellular calcium levels in each mast cell in a visual field, as measured by changes in Fluo-4 fluorescence using a standard FITC filter, reflecting responsiveness to elamipretide. Cells were identified as responding if the Fluo-4 signal rose by at least 50% for at least 10 seconds, which clearly distinguishes a ligand-induced response from random flickering events.
Injection site reactions induced by several classes of drugs were mediated in mice by Mrgprb2-dependent activation of mast cells. Whether elamipretide activated primary mouse connective tissue mast cells was evaluated, and if so, it was evaluated whether this was Mrgprb2-dependent. […] Briefly, primary connective tissue mast cells were purified from mice, loaded with Fluo-4, and changes in fluorescence after elamipretide exposure were imaged. T fluorescence of over 200 individual mast cells, each from wild type and Mrgprb2 knockout mice, were monitored and the percentage of total cells that responded was determined.

[8] = SQ elamipretide, multiple-dose trials >8 days, n = 376

mouse ortholog Mrgprb2, sequence (Q3KNA1 whole entry): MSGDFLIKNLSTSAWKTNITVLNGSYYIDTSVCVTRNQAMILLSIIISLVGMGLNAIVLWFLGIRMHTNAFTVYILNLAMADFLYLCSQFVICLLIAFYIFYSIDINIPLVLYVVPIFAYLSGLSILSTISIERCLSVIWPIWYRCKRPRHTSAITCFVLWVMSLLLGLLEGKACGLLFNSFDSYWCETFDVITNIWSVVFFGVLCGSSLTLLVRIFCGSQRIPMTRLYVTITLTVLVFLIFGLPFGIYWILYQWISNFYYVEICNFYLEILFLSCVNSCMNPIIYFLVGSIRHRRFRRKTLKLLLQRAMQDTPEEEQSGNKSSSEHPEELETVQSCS

Cc1cc(O)cc(C)c1C[C@H](NC(=O)[C@H](N)CCCNC(=N)N)C(=O)N[C@@H](CCCCN)C(=O)N[C@@H](Cc1ccccc1)C(N)=O (stereo in doubt) [Elamipretide, H-D-Arg-2′,6′Dmt-Lys-Phe-NH2]
injection site reactions [1]: some being severe at the higher dose levels
Fluo-4 fluorescence after elamipretide exposure [2]: increased
activation of the MRGPRX2 expressing cells (calcium mobilization) [3]: dose dependent activation
Fluo-4 fluorescence after elamipretide exposure [4]: not in untransfected cells
Injection site bruising, (%) of Subjects [5, 8]: (12.0) %
Injection site bruising, Number of Subjects [5, 8]: 45
Injection site erythema, (%) of Subjects [5, 8]: (47.3) %
Injection site erythema, Number of Subjects [5, 8]: 178
Injection site haemorrhage, (%) of Subjects [5, 8]: (5.9) %
Injection site haemorrhage, Number of Subjects [5, 8]: 22
Injection site induration, (%) of Subjects [5, 8]: (19.4) %
Injection site induration, Number of Subjects [5, 8]: 73
Injection site mass, (%) of Subjects [5, 8]: (5.6) %
Injection site mass, Number of Subjects [5, 8]: 21
Injection site pain, (%) of Subjects [5, 8]: (22.3) %
Injection site pain, Number of Subjects [5, 8]: 84
Injection site pruritus, (%) of Subjects [5, 8]: (44.7) %
Injection site pruritus, Number of Subjects [5, 8]: 168
Injection site swelling, (%) of Subjects [5, 8]: (13.8) %
Injection site swelling, Number of Subjects [5, 8]: 52
Injection site urticaria, (%) of Subjects [5, 8]: (12.5) %
Injection site urticaria, Number of Subjects [5, 8]: 47
injection site reactions (ISRs) reported, % of subjects ([5]; subjects receiving SQ elamipretide through clinical trials): 84.4%
EC50 [6]: 98.5 µM
EC50 relative to the typical elamipretide injection concentration of 40 mg/mL (times lower) [6]: ~600 times
Fluo-4 fluorescence after elamipretide exposure ([6]; HEK293 cells transfected with MRGPRX2): increased
intracellular calcium response of mast cells ([7]; mast cells from Mrgprb2 knockout mice): almost no responses
intracellular calcium response of mast cells ([7]; wild-type mast cells): Robust increases in intracellular calcium
